Source: patent publication US6124477A, “Anti-first-pass effect compounds” (priority 1997, dated 2000)
Like-named read-outs stand apart in the source and are kept apart here.

What was measured:
first-pass effect [1] = details: in vivo; cited from earlier work
cytochrome P450 = details: given to humans in large doses; cited from earlier work
[2] = in vivo; cited from earlier work
Human Cytochrome P450 [3] = assay: Determination of first-pass effectiveness of furocoumarins (human cytochrome P450-mediated biotransformation, Protocol C / C'); assay type: in vitro ADME
Procedure: The process of preparing incubation mixtures begins by mixing 10 uL of ethanol or an ethanolic solution containing an inhibitor with 100 uL of 100 mg/mL bovine serum albumin (Sigma) dissolved in reaction buffer at room temperature. Reaction buffer is composed of 0.10 M sodium phosphate, 1.0 mM ethylenediaminetetraacetic acid, and 5.0 mM magnesium chloride, pH 7.4 (all reagents: Fisher Scientific). Inhibitory chemicals used were ketoconazole (Research Diagnostics, Inc.), miconazole, bergapten, xanthotoxin (previous three from Sigma), bergamotin, imperatorin, isopimpinellin, psoralen, angelicin (previous five from Indofine Chemical Company, Inc.), and fractions or precipitates resulting from Protocols A, A', B, B', or B" above. When possible, final inhibitor concentrations were expressed in molarity by calculation from the weighed material or by interpolation from HPLC calibration curves prepared with reference materials; otherwise, concentrations are expressed as weight per volume. Reaction tubes are placed on ice in preparation for the manipulations that follow. Sufficient reaction buffer is added so that the final volume of each tube will be 500 uL, 5 uL of a 100-fold concentrate for generating reduced nicotinamide adenine dinucleotide phosphate is added (such that completed reaction mixture contains 1.0 mM nicotinamide adenine dinucleotide phosphate, 1 U/mL glucose-6-phosphate dehydrogenase, and 10 mM glucose-6-phosphate; all from Sigma), and then human hepatic S9 (Anatomic Gift Foundation) is thawed and added in sufficient amounts to cause readily detectable amounts of metabolites to be formed in control reactions (amount necessary varies among individuals, but 10 uL is typical).
The samples prepared above are readied for HPLC assessment using the protocol that follows. Each tube is vortex mixed and centrifuged for 10 min at setting 35, the resulting supernatant is transferred to a clean tube, and the liquid is evaporated using a Speed Vac apparatus. The residue in each tube is first dissolved in 40 uL 1:1 acetonitrile:water, 2.5 mL of acetonitrile is added, and the centrifuge-transfer-evaporate step just described is repeated.
Linear gradients are used for elution and are formed by mixing mobile phase A composed of water with mobile phase B composed of 0.025% (v/v) formic acid in acetonitrile (instrument: Hewlett Packard). The elution time, in minutes, the percentage of mobile phase B present in the mixed mobile phase, and the flow rate (mL/min) are as follows: 0, 10, 0.10; 2, 10, 0.10; 3.5, 10, 0.20; 4, 10, 0.25; 5, 10, 0.25; 30, 55, 0.25; 32, 98, 0.25; 33, 98, 0.40; 39.8, 98, 0.40; 40, 98, 0.25; 45, 10, 0.25; 45.25, 10, 0.20; 50, 10, 0.20; 50.25, 10, 0.10. The chromatographic column has dimensions of 150 mm length×2.1 mm internal diameter, is packed with a proprietary material (Prism, Keystone Scientific, Inc.), is protected with a 2 mm internal diameter column containing the same material and with a PTFE filter, and is maintained at 35+/-0.2° C. The dry sample residue is mixed with 60 uL of 1:1 acetonitrile:water followed by 40 uL water just prior to each 50.25 min run cycle. The column eluate from each 10 uL injection is monitored for fluorescence with excitation at 228 nm, emission at 291 nm, and bandpass filtration at 280 nm.
The process of preparing incubation mixtures begins by mixing 10 uL of ethanol (control reactions) or an ethanolic solution containing an inhibitor with 100 uL of 100 mg/mL bovine serum albumin (Sigma) dissolved in reaction buffer at room temperature. Reaction buffer is composed of 0.10 M sodium phosphate, 1.0 mM ethylenediaminetetraacetic acid, and 5.0 mM magnesium chloride, pH 7.4 (all reagents: Fisher Scientific). […] Final inhibitor concentrations were expressed in molarity by calculation from the weighed material or by use of Beer's law. Reaction tubes are placed on ice in preparation for the manipulations that follow. […]

Human Cytochrome P450 [4] = assay: Protocol C': generation of saquinavir metabolites by human hepatic S9 in the presence of inhibitor; assay type: in vitro ADME
Procedure: The process of preparing incubation mixtures begins by mixing 10 uL of ethanol (control reactions) or an ethanolic solution containing an inhibitor with 100 uL of 100 mg/mL bovine serum albumin (Sigma) dissolved in reaction buffer at room temperature. Reaction buffer is composed of 0.10 M sodium phosphate, 1.0 mM ethylenediaminetetraacetic acid, and 5.0 mM magnesium chloride, pH 7.4 (all reagents: Fisher Scientific). […] Final inhibitor concentrations were expressed in molarity by calculation from the weighed material or by use of Beer's law. Reaction tubes are placed on ice in preparation for the manipulations that follow. Sufficient reaction buffer is added so that the final volume of each tube will be 500 uL, 5 uL of a 100-fold concentrate for generating reduced nicotinamide adenine dinucleotide phosphate is added (such that completed reaction mixture contains 1.0 mM nicotinamide adenine dinucleotide phosphate, 1 U/mL glucose-6-phosphate dehydrogenase, and 10 mM glucose-6-phosphate; all from Sigma), and then human hepatic S9 (Anatomic Gift Foundation) is thawed and added in sufficient amounts to cause readily detectable amounts of metabolites to be formed in control reactions (amount necessary varies among individuals, but 10 uL is typical). […]
The samples prepared above are readied for HPLC assessment using the protocol that follows. […]

first-pass effect [5] = details: inhibitors commonly given to humans; cited from earlier work

CO[C@H]1C[C@H](O[C@H]2[C@H](C)[C@@H](O[C@@H]3O[C@H](C)C[C@H](N(C)C)[C@H]3OC(C)=O)[C@@H](C)C[C@@]3(CO3)C(=O)[C@H](C)[C@@H](OC(C)=O)[C@@H](C)[C@@H](C)OC(=O)[C@@H]2C)O[C@@H](C)[C@@H]1OC(C)=O [troleandomycin]
inhibition of the first-pass effect (first-pass effect [1]): inhibitors of the first-pass effect

O=c1ccc2cc3ccoc3cc2o1 [psoralen]
inhibition of cytochrome P450 (cytochrome P450): do inhibit cytochrome P450
phototoxicity [2]: phototoxic
first-pass effect effectiveness (Human Cytochrome P450 [3]; determined herein): ineffective

CC(C)=CCC/C(C)=C/COc1c2ccoc2cc2oc(=O)ccc12 [bergamottin]
first-pass inhibition (saquinavir metabolite generation) (Human Cytochrome P450 [4]): essentially ineffective first-pass inhibitors
first-pass effect effectiveness (Human Cytochrome P450 [3]): ineffective

CC[C@H]1OC(=O)[C@H](C)[C@@H](O[C@H]2C[C@@](C)(OC)[C@@H](O)[C@H](C)O2)[C@H](C)[C@@H](O[C@@H]2O[C@H](C)C[C@H](N(C)C)[C@H]2O)[C@](C)(O)C[C@@H](C)C(=O)[C@H](C)[C@@H](O)[C@]1(C)O [erythromycin]
inhibition of the first-pass effect (first-pass effect [1]): inhibitors of the first-pass effect

CCC(C)n1ncn(-c2ccc(N3CCN(c4ccc(OCC5COC(Cn6cncn6)(c6ccc(Cl)cc6Cl)O5)cc4)CC3)cc2)c1=O (stereo not drawn) [itraconazole]
inhibition of the first-pass effect (first-pass effect [1]): inhibitors of the first-pass effect

Clc1ccc(COC(Cn2ccnc2)c2ccc(Cl)cc2Cl)c(Cl)c1 (stereo not drawn) [miconazole]
inhibition of the first-pass effect (first-pass effect [1]): inhibitors of the first-pass effect

CC(C)=CCOc1c2occc2cc2ccc(=O)oc12 [imperatorin]
first-pass inhibition (saquinavir metabolite generation) (Human Cytochrome P450 [4]; FIG. 1, Protocol C', saquinavir, human hepatic S9): essentially ineffective first-pass inhibitors
first-pass effect effectiveness (Human Cytochrome P450 [3]; determined herein): ineffective

COc1c2ccoc2c(OC)c2oc(=O)ccc12 [isopimpinellin]
first-pass effect effectiveness (Human Cytochrome P450 [3]; determined herein): ineffective

COc1c2ccoc2cc2oc(=O)ccc12 [bergapten, 5-methoxypsoralen]
phototoxicity [2]: phototoxic

C/C(=C\COc1c2ccoc2cc2oc(=O)ccc12)CCC(O)C(C)(C)O (stereo not drawn) [6', 7'-dihydroxybergamottin]
first-pass effect effectiveness (Human Cytochrome P450 [3]): ineffective

Cc1nnc2n1-c1ccc(Cl)cc1C(c1ccccc1Cl)=NC2 [triazolam]
bioavailability in presence of inhibitors (first-pass effect [5]): bioavailability is increased by inhibitors commonly given to humans

OC(Cn1cncn1)(Cn1cncn1)c1ccc(F)cc1F [fluconazole]
inhibition of the first-pass effect (first-pass effect [1]): inhibitors of the first-pass effect

Cc1ncc2n1-c1ccc(Cl)cc1C(c1ccccc1F)=NC2 [midazolam]
bioavailability in presence of inhibitors (first-pass effect [5]): bioavailability is increased by inhibitors commonly given to humans

O=c1ccc2ccc3occc3c2o1 [angelicin]
first-pass effect effectiveness (Human Cytochrome P450 [3]; determined herein): ineffective

C/C(=C\COc1ccc2ccc(=O)oc2c1)CCC(O)C(C)(C)O (stereo not drawn) [marmin]
first-pass effect effectiveness (Human Cytochrome P450 [3]): ineffective

CC(=O)N1CCN(c2ccc(OCC3COC(Cn4ccnc4)(c4ccc(Cl)cc4Cl)O3)cc2)CC1 (stereo not drawn) [ketoconazole]
inhibition of the first-pass effect (first-pass effect [1]): inhibitors of the first-pass effect

COc1c2occc2cc2ccc(=O)oc12 [xanthotoxin, 8-methoxypsoralen]
phototoxicity [2]: phototoxic
